Eight molecules from ChEMBL document CHEMBL1909046, “DrugMatrix in vitro pharmacology data” can be followed below.

pIC50, pKi: −log10 of the molar value.

A word on the pIC50: it is the IC50 on a negative log10 scale, so that one unit is a factor of ten. As a reminder, the pKi is −log10 of the Ki, conventionally taken in molar units.

Series [1] is described as follows: DRUGMATRIX: ATPase, Na+/K+ enzyme inhibition (substrate: ATP). The following applies: Not Active = under 50% inhibition at 10 µM. It counts as tissue-based, Sus scrofa, Heart.
Series [2] can be described thus: DRUGMATRIX: beta-Lactamase enzyme inhibition (substrate: Nitrocefin). More on the design: species or system Bacillus cereus. Conditions: Not Active = under 50% inhibition at 10 µM.
Series [3] can be described thus: DRUGMATRIX: Calcium Channel Type L, Dihydropyridine radioligand binding (ligand: [3H] Nitrendipine). It counts as cell membranes, Rattus norvegicus, Wistar, Cerebral cortex, Membrane. The following applies: Not Active = under 50% inhibition at 10 µM.
The target in a further series is Substance-P receptor (Homo sapiens, UniProt P25103). It counts as cell membranes, CHO, Membrane. The following applies: cho. Also: in other assays of this panel Not Active means under 50% inhibition at 10 µM.
In another series the target is Cannabinoid receptor 1 (Homo sapiens, UniProt P21554). It counts as cell membranes, Membrane. The following applies: chem-1. Also: in other assays of this panel Not Active means under 50% inhibition at 10 µM.
A further series addresses D(3) dopamine receptor (Homo sapiens, UniProt P35462). Put plainly: DRUGMATRIX: Dopamine D3 radioligand binding (ligand: [3H] Spiperone). The class given is cell membranes, CHO, Membrane. Conditions: for IC50: cho.
Another series addresses Insulin receptor (Rattus norvegicus, UniProt P15127). The class given is cell membranes, Wistar, Liver, Membrane.
The target in the next series is Melanocortin receptor 4 (Homo sapiens, UniProt P32245). It counts as cell membranes, Membrane. Conditions: hek293. Also: in other assays of this panel Not Active means under 50% inhibition at 10 µM.
Series [4] has as its target T1, Neuropeptide Y receptor type 2 (Homo sapiens, UniProt P49146). Also: in other assays of this panel Not Active means under 50% inhibition at 10 µM.
T1 sequence (P49146 whole entry): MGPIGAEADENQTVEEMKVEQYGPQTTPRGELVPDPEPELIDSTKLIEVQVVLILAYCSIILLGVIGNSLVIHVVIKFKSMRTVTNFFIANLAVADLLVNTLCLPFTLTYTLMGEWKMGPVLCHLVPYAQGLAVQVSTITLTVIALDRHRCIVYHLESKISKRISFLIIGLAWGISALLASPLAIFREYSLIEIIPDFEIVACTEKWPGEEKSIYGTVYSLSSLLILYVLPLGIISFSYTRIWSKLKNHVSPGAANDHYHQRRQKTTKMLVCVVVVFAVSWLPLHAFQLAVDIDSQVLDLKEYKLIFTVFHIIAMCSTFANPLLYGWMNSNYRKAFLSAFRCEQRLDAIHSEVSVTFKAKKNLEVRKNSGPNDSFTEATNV
The class given is cell membranes, Membrane. Conditions: kan-ts.

Series [5] can be described thus: DRUGMATRIX: Phosphodiesterase PDE4 enzyme inhibition (substrate: [3H]cAMP + cAMP). The following applies: u-937; Not Active = under 50% inhibition at 10 µM.
A short description of series [6]: DRUGMATRIX: Potassium Channel [KATP] radioligand binding (ligand: [3H] Glyburide). The class given is cell membranes, Membrane. The following applies: hit-t15; Not Active = under 50% inhibition at 10 µM.
Series [7] has as its target Matrix metalloproteinase-9 (Homo sapiens, UniProt P14780). The class given is cell-based.
In a further series the target is Acetylcholinesterase (Homo sapiens, UniProt P22303). Put plainly: DRUGMATRIX: Acetylcholinesterase enzyme inhibition (substrate: acetylthiocholine). The class given is cell-based, HEK293. The following applies: Not Active = under 50% inhibition at 10 µM; for IC50: hek293.
For the next series, the target named is T2, Adenosine receptor A3 (Homo sapiens, UniProt P0DMS8).
T2 sequence (P0DMS8 whole entry): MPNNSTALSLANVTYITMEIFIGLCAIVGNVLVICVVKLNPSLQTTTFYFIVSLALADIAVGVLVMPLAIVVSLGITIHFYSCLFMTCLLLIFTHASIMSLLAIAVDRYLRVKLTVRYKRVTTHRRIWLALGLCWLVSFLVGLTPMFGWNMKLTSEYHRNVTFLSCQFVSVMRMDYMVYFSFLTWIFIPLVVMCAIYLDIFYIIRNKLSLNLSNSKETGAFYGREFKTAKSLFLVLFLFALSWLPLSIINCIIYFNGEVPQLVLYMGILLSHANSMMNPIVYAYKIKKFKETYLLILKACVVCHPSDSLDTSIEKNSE
It counts as cell membranes, CHO-K1, Membrane. Conditions: cho-k1.

For another series, the target named is Cytochrome P450 3A4 (Homo sapiens, UniProt P08684). The following applies: bti-tn-5b1-4. Also: in other assays of this panel Not Active means under 50% inhibition at 10 µM.
Sequence of Cytochrome P450 3A4 (P08684 whole entry): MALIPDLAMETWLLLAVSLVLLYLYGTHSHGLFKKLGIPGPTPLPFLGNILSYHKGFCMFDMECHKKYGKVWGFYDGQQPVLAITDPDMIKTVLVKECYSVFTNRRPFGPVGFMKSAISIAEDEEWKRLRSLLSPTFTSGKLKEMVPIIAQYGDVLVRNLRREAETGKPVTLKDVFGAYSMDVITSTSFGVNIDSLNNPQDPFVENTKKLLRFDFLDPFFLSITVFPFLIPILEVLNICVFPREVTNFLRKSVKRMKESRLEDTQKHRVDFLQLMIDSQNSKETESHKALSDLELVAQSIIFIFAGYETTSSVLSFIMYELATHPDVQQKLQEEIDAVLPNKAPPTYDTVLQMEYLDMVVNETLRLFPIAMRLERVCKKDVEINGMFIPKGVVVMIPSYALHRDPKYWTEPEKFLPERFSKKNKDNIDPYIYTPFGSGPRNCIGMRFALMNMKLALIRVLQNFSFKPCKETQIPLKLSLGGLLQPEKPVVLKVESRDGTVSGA

Sequence of D(3) dopamine receptor (P35462 whole entry): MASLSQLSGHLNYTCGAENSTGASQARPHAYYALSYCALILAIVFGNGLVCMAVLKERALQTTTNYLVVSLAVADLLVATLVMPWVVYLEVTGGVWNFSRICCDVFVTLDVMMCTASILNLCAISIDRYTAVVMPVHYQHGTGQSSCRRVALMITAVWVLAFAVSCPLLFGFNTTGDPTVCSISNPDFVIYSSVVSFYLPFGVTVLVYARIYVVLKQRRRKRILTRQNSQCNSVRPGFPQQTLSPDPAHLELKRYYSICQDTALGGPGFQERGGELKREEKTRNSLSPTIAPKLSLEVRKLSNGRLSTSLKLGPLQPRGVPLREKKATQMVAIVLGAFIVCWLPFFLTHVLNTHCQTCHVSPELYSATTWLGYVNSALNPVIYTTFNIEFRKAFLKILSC
Sequence of Cannabinoid receptor 1 (P21554 whole entry): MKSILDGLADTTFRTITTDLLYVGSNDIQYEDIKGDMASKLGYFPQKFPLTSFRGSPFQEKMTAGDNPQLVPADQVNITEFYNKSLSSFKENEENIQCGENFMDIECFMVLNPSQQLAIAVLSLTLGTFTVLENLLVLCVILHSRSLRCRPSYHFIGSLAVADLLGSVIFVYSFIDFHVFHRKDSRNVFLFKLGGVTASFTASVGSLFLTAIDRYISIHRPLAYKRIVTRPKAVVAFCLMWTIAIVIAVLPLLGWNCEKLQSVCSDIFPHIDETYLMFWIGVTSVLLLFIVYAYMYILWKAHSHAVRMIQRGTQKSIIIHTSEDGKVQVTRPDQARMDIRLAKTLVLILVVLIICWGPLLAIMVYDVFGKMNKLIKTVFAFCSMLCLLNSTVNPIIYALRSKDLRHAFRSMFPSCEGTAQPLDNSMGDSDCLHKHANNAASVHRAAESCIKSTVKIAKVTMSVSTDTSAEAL
Sequence of Acetylcholinesterase (P22303 whole entry): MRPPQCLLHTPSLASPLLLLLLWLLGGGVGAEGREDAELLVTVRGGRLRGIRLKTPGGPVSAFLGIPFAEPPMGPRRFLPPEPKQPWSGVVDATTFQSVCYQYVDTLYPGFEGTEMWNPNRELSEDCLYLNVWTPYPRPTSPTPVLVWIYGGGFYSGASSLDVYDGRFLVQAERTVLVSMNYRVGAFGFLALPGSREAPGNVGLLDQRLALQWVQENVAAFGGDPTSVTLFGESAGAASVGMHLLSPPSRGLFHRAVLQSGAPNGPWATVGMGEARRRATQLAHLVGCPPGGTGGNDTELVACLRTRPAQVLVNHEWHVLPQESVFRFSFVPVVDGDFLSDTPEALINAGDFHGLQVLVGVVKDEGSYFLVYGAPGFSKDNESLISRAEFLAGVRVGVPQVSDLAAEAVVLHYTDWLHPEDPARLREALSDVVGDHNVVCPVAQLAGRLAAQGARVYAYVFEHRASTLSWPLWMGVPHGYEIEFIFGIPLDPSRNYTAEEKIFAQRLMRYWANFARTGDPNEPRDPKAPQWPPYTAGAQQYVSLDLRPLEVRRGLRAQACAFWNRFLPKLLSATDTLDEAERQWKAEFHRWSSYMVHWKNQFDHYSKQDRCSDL
Sequence of Insulin receptor (P15127 27-759 limits assumed): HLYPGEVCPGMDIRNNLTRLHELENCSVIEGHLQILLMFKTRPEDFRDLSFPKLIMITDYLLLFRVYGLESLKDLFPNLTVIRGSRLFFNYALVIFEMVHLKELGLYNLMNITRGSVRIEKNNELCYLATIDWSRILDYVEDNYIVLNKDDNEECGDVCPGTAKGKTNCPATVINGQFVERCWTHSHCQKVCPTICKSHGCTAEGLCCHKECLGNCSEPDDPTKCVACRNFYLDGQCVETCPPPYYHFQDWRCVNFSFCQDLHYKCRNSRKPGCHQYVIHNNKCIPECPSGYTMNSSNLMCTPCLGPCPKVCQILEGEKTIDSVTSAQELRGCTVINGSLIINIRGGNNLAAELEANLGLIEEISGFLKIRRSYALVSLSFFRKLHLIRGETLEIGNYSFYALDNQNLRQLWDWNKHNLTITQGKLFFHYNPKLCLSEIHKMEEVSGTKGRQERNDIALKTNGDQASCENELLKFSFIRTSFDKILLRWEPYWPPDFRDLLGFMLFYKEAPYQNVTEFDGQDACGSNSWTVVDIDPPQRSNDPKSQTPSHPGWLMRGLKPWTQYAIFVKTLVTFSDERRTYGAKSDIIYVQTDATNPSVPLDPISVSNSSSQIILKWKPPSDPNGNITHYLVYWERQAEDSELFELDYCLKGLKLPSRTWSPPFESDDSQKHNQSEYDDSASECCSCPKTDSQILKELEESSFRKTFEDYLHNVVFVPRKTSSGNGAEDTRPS
Sequence of Insulin receptor (P15127 764-1383 limits assumed): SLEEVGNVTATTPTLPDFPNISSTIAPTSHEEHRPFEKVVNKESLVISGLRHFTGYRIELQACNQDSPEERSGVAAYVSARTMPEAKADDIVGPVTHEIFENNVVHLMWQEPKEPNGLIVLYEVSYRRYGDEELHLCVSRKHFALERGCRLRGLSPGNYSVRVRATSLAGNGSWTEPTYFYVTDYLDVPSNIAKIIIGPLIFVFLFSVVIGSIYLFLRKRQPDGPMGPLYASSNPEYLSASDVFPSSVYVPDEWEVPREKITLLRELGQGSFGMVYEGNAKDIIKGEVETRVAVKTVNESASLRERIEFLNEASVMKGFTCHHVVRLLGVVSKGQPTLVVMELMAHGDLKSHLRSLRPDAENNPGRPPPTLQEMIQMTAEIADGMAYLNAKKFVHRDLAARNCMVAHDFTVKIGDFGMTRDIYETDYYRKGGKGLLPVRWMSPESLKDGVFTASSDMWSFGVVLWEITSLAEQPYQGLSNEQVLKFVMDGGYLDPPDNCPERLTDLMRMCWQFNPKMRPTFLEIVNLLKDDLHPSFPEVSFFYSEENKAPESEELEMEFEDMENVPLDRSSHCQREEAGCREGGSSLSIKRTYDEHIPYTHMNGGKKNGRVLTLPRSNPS
Sequence of Matrix metalloproteinase-9 (P14780 whole entry): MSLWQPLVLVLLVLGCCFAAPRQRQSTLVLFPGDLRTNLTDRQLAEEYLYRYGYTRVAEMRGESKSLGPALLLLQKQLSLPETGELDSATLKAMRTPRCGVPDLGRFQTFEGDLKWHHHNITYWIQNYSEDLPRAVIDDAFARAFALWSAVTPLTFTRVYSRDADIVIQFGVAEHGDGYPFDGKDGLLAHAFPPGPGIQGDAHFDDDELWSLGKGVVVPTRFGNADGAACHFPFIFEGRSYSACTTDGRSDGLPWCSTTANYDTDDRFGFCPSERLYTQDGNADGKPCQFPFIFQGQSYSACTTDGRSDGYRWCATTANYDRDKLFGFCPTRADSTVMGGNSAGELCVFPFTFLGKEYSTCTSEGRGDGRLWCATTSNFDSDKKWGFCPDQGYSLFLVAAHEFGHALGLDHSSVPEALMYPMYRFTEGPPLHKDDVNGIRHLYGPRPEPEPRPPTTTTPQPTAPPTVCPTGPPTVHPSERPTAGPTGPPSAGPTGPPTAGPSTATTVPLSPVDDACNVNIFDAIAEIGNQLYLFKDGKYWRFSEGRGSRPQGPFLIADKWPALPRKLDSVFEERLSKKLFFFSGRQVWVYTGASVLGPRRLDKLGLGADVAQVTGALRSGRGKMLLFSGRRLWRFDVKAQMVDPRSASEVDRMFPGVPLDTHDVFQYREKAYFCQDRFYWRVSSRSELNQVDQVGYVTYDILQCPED
Sequence of Substance-P receptor (P25103 whole entry): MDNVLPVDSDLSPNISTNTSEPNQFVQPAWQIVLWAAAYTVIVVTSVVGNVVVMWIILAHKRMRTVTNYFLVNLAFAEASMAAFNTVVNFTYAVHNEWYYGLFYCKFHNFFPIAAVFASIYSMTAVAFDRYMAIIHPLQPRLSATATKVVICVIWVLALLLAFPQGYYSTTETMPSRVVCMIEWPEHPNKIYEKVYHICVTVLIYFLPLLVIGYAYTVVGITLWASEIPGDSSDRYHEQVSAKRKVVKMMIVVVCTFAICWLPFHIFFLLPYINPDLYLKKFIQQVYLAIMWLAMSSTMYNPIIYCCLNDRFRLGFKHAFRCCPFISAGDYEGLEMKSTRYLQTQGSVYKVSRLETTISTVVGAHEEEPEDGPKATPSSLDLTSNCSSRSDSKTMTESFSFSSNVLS
Sequence of Melanocortin receptor 4 (P32245 whole entry): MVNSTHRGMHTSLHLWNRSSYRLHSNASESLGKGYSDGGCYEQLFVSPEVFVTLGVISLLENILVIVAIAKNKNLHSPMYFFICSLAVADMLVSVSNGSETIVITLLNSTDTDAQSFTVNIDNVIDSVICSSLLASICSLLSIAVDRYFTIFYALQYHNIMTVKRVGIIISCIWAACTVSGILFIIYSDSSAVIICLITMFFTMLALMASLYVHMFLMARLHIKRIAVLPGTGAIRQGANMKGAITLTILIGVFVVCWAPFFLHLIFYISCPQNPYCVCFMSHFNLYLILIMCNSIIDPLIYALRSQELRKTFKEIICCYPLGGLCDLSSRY

In the case of `COc1ccc2cc(CC(=O)O)ccc2c1`, the IC50 entry (in [1]; in series [2]; in series [3]; on Substance-P receptor; against Cannabinoid receptor 1; on D(3) dopamine receptor) was “Not Active” throughout. The IC50 result (against Insulin receptor; against Melanocortin receptor 4; in [4]; in series [5]; in series [6]; in series [7]) was “Not Active” in each case. Further, the IC50 result on Acetylcholinesterase, against Adenosine receptor A3 and on Cytochrome P450 3A4 was “Not Active” in each case. For the same molecule, the Ki entry (in series [1]; in series [2]; in series [3]; in series [5]; in [6]; on Cytochrome P450 3A4) was “Not Active” in each case.
With `c1ccc2c(c1)cc1ccc3cccc4ccc2c1c34`, the IC50 entry (in [1]; in series [3]; against Substance-P receptor; at Cannabinoid receptor 1; at D(3) dopamine receptor; against Insulin receptor) was “Not Active” each time. Also, the IC50 result (against Melanocortin receptor 4; in series [4]; in series [5]; in series [6]; in [7]; against Adenosine receptor A3) was “Not Active” in each case. The IC50 result against Cytochrome P450 3A4 is recorded as “Not Active”. In addition, the Ki entry (in series [1]; in series [3]; in series [5]; in [6]; on Cytochrome P450 3A4) was “Not Active” in each case. The pIC50 in series [2] (read-out: IC50) is 4.68; at Acetylcholinesterase (read-out: IC50) it was 4.55.
For the molecule `CC1(C)S[C@@H]2[C@H](NC(=O)[C@H](N)c3ccc(O)cc3)C(=O)N2[C@H]1C(=O)O` [AMOXICILLIN], the IC50 entry (in series [1]; in series [2]; in [3]; at Substance-P receptor; against Cannabinoid receptor 1; on D(3) dopamine receptor) was “Not Active” each time. Moreover, the IC50 result (against Insulin receptor; against Melanocortin receptor 4; in [4]; in [5]; in series [7]; against Acetylcholinesterase) was “Not Active” each time. For the same molecule, the IC50 result against Adenosine receptor A3 and on Cytochrome P450 3A4 was “Not Active” each time. Besides, the Ki entry (in [1]; in [2]; in series [3]; in series [5]; at Cytochrome P450 3A4) was “Not Active” throughout.
As for `CN1C[C@H](C(=O)N[C@]2(C)O[C@@]3(O)[C@@H]4CCCN4C(=O)[C@H](Cc4ccccc4)N3C2=O)C=C2c3cccc4[nH]cc(c34)C[C@H]21` [ERGOTAMINE], the IC50 entry (in series [1]; in [2]; in [3]; against Substance-P receptor; against Cannabinoid receptor 1; on Insulin receptor) was “Not Active” in each case. The IC50 entry (at Melanocortin receptor 4; in [4]; in [5]; in series [6]; in series [7]; against Acetylcholinesterase) was “Not Active” throughout. Besides, the IC50 entry at Adenosine receptor A3 is given as “Not Active”. Moreover, the Ki entry in series [1], in series [2], in [3], in series [5] and in series [6] was “Not Active” in each case. The pIC50 on D(3) dopamine receptor (read-out: IC50) is 8.37. Further, the pKi at D(3) dopamine receptor (read-out: Ki) was 8.83.
As for `O=C1OCCN1/N=C/c1ccc([N+](=O)[O-])o1` [FURAZOLIDONE], the IC50 result (in series [1]; in [2]; in [3]; on Substance-P receptor; against Cannabinoid receptor 1; at D(3) dopamine receptor) was “Not Active” throughout. Besides, the IC50 result (against Insulin receptor; at Melanocortin receptor 4; in [4]; in series [5]; in [6]; in series [7]) was “Not Active” throughout. The IC50 result on Acetylcholinesterase and on Adenosine receptor A3 was “Not Active” each time. Further, the Ki result in series [1], in [2], in series [3], in series [5] and in series [6] was “Not Active” each time.
Regarding `NCC(=O)O` [GLYCINE], the IC50 result (in series [1]; in series [2]; in [3]; on Substance-P receptor; at Cannabinoid receptor 1; at D(3) dopamine receptor) was “Not Active” in each case. Moreover, the IC50 entry (on Insulin receptor; on Melanocortin receptor 4; in series [4]; in [5]; in [6]; in series [7]) was “Not Active” throughout. For the same molecule, the IC50 entry against Acetylcholinesterase and at Adenosine receptor A3 was “Not Active” throughout. The Ki result in series [1], in [2], in [3], in series [5] and in series [6] was “Not Active” throughout.
Consider `O=P1(NCCCl)OCCCN1CCCl` (stereo unspecified) [IFOSFAMIDE], for which the IC50 result (in series [1]; in [2]; in series [3]; on Substance-P receptor; against Cannabinoid receptor 1; on D(3) dopamine receptor) was “Not Active” in each case. In addition, the IC50 entry (on Insulin receptor; against Melanocortin receptor 4; in series [4]; in series [5]; in series [6]; in series [7]) was “Not Active” throughout. The IC50 result against Acetylcholinesterase and on Adenosine receptor A3 was “Not Active” throughout. For the same molecule, the Ki entry in series [1], in series [2], in series [3], in [5] and in [6] was “Not Active” in each case.
For `CC1COc2c(N3CCN(C)CC3)c(F)cc3c(=O)c(C(=O)O)cn1c23` (stereo unspecified) [OFLOXACIN], the IC50 entry (in series [1]; in series [2]; in [3]; against Substance-P receptor; at Cannabinoid receptor 1; on D(3) dopamine receptor) was “Not Active” throughout. Besides, the IC50 result (at Insulin receptor; against Melanocortin receptor 4; in [4]; in series [5]; in [6]; in series [7]) was “Not Active” each time. The IC50 result on Acetylcholinesterase and against Adenosine receptor A3 was “Not Active” throughout. Also, the Ki result in series [1], in [2], in [3], in series [5] and in [6] was “Not Active” each time.
